This is an account of results in patent US4599362A, “2-aryl-ethyl ether derivatives and insecticidal and acaricidal agents containing said derivatives” (priority 1980, dated 1986).

The subject of data set [1] is second-instar larvae of tobacco cutworm. Kind of data set: whole plant or invertebrate. It is filed as in vivo. As to conditions: foliar. The method, then:
To a mixture of 20 parts of the compound of the present invention and 20 parts of Sorpol SM-200 (registered trademark for the product supplied by Toho Chemical Industrial Co., Ltd.) was added 60 parts of xylol, and the mixture was sufficiently blended. The obtained emulsifiable concentrate was diluted at a predetermined concentration with distilled water, and the obtained dilution was used.
An emulsifiable concentrate of a test compound prepared according to the method described in Formulation Example 1 was diluted to a concentration of 100 or 20 ppm. Among the compounds of the present invention, the following compounds were used as the test compounds: (1), (l ), (3), (4), (6), (8), (9), (10), (11), (14), (15), (16), (17), (18), (19), (20), (21), (24), (27), (28), (29), (30), (33), (34), (35), (36), (38), (39), (40), (41), (42), (43), (47), (48), (50), (51), (52), (53), (54), (55), (56), (59), (60), (62), (63), (64), (65), (66), (67) and (68). Sweetpotato leaves were immersed in the dilution for 10 seconds, air-dried and placed in a plastic cup having a diameter of 10 cm. Then second-instar larvae of tobacco cutworm were set free in the cup. The cup was allowed to stand still in a thermostat chamber maintained at 25° C. After 48 hours, the numbers of killed and living larvae were counted and the mortality was calculated. The obtained result was expressed by an average value obtained from the mortality calculated in three test cups. Compounds of (b), (f) and (h) were tested as comparative compounds in the same manner as the compounds of the present invention.

Data set [2] relates to Second-instar and fifth-instar larvae of tobacco cutworm. Kind of data set: Test 2: Tobacco Cutworm Larva Dipping Test. In kind it is in vivo.
Data set [3] concerns third-instar larvae of diamond back moth. Kind of data set: Test 4: Effect on Diamond Back Moth. It is filed as in vivo. As to conditions: Plutella xylostella, 24 hours. The method in brief: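 Emulsifiable concentrate diluted in water to 100 or 20 ppm and sprayed at 3 ml per cup onto cabbage leaves holding 10 third-instar diamondback moth larvae. Dead and living larvae counted after 24 h; mortality averaged over three cups.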

The nature of data set [4]: Test 9: Toxicity Test (acute oral, mice). The following applies: mouse, in vivo, po. The method in brief:
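Compound dissolved or suspended in corn oil was given orally to male mice of 19–23 g body weight, at 0.2 ml per 10 g. Deaths and effects were recorded after 7 days.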

The test system of a further data set is German cockroach. Kind of data set: Test 7: Effect on German Cockroach. It is filed as in vivo. The following applies: Blattella germanica, male adults, 24 hours, agonized and killed; for mortality at 10 mg/m2: 10 mg/m^2; for mortality at 50 mg/m2: 50 mg/m^2. The procedure, abridged: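 Dish bottoms were treated with 50 or 10 mg/m^2 of test compound and air-dried, then 10 male adult cockroaches were released per dish and held at 25° C. Agonized and killed adults were counted after 24 hours, averaged over two dishes.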

For the next data set, the system named is two-spotted spider mite. Kind of data set: Test 6: Effect on Two-Spotted Spider mite adults. The following applies: Tetranychus urticae; 500 ppm; adults; 24 hours; read-out: Mortality (%). It is filed as in vivo. The procedure, abridged: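 Kidney bean leaf discs (15 mm) on wet cotton, each holding 10 adult mites, sprayed with 3 ml of a 500 ppm dilution of an emulsifiable concentrate. Kept at 25° C; dead adults counted after 24 hours to give mortality, averaged over three discs.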

A short description of another data set: Test 8: Fish Toxicity. The following applies: carp, water, carps, concentration at which 1/2 of the test fishes were killed, read-out: Fish Toxicity, TLm48. In kind it is in vivo. Here is the method: (§1) A water tank having a width of 60 cm, a length of 30 cm and a height of 40 cm was filled with water, and 10 yearling carps having a body length of about 5 cm were set free in the tank and adapted to the environment in the tank. A test compound was applied so that the concentration in water was 10, 1, or 0.1 ppm. After 48 hours, the numbers of killed and living carps were counted and the influences on the fishes were examined.

The test system of the next data set is green peach aphids. The experiment in a line: Test 5: Effect on green peach Aphid. In kind it is in vivo. As to conditions: Myzus persicae, 24 hours, mortality class, read-out: Insecticidal Activity.
Data set [5] concerns sensitive green rice leafhopper (collected at Chigasaki). Kind of data set: Test 3: Effect on Sensitive Green Rice Leafhopper. It is filed as in vivo. The following applies: Nephotettix cincticeps, female adults, 24 hours. The method in brief:
(§2)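 Rice seedlings (2–3 leaves) sprayed with emulsifiable-concentrate dilutions at 100 or 20 ppm, 3 ml per pot, air-dried, then infested with 10 female adults per pot. Mortality counted after 24 h and averaged over three pots.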

Data set [6] has as its system resistant green rice leafhopper (collected at Nakagawara). Kind of data set: Test 3: Effect on Resistant Green Rice Leafhopper. In kind it is in vivo, Nephotettix cincticeps Uhler. As to conditions: Nephotettix cincticeps, 24 h, read-out: Mortality (%) Green Rice Leafhopper Collected at Nakagawara. The method in brief: as §2
Another data set relates to yearling carps. Kind of data set: Test 8: Fish Toxicity. In kind it is in vivo. As to conditions: 48 hours, concentration at which 1/2 of the test fishes were killed. Here is the method:
as §1

The mark [7] stands for this setting: 20 ppm, second-instar larvae, 24 hours, read-out: Mortality (%) Second-Instar Larvae.
Setting [8] is: 100 ppm, second-instar larvae, 24 hours, read-out: Mortality (%) Second-Instar Larvae.
[9] abbreviates: topical, 24 h, read-out: Mortality (%) Fifth-Instar Larvae.
Where [10] appears, read: 20 ppm, second-instar larvae, 48 hours, read-out: Mortality (%).

Converted amounts (≈) assume the structure as drawn. Read-outs that look alike come from different tables or passages of the source.

Regarding `COP(=O)(NC(C)=O)SC` (centres unmarked) [(h), O,S-dimethyl N-acetylphosphoroamidothiolate], in data set [1] (48 h), the mortality at 20 ppm was 30% and the mortality at 100 ppm came out at 70%.

For orientation: LD50 means the dose at which mortality reaches 50%. The low end stands for greater toxicity, the high end for lower toxicity. As for `CC(C)(COCc1ccc(F)c(Oc2ccc(Br)cc2)c1)c1ccc(Cl)cc1` [Compound 15, 3-(4-bromophenoxy)-4-fluorobenzyl 2-(4-chlorophenyl)-2-methylpropyl ether], the mortality at 20 ppm in data set [2] (setting [7]), in [2] (setting [9]) and in data set [3] was 100% throughout. The mortality at 100 ppm in [2] (setting [8]) is 100%; in [2] (setting [9]), 100%; in data set [3], 100%; in the data set on green peach aphids it was more than 95%. This molecule had a median lethal dose (LD50) at 168 h in [4] of more than 500 mg/kg. In addition, the mortality at 10 mg/m2 in the data set with German cockroach was 100%. Further, the mortality at 50 mg/m2 in the data set with German cockroach was determined as 100%. In addition, in the data set with two-spotted spider mite, the mortality at 500 ppm was 100%. The LC50 at 48 h in the data set “Test 8: Fish Toxicity” is more than 10 µg/mL.

Turning to `CNC(=O)ON=C(C)SC` [Comparative Compound (f), S-methyl N-(methylcarbamoyloxy)thioacetoamidate], in data set [1] (setting [10]), the mortality at 20 ppm stood at 80%. Also, the mortality at 100 ppm in data set [1] (100 ppm, second-instar larvae, 48 hours, read-out: Mortality (%)) came to 100%.

As for `CC(C)(COCc1ccc(F)c(Oc2ccccc2)c1)c1ccc(Br)cc1` [Compound 18, 3-Phenoxy-4-fluorobenzyl 2-(4-bromophenyl)-2-methylpropyl ether], in data set [3], the mortality at 20 ppm stood at 100% and the mortality at 100 ppm stood at 100%. The molecule also yielded a 50% lethal dose (LD50) at 168 h in [4] of more than 500 mg/kg. Further, in the data set on German cockroach, the mortality at 10 mg/m2 was determined as 100% and the mortality at 50 mg/m2 was found to be 100%. For the same molecule, the mortality at 500 ppm in the data set with two-spotted spider mite was 100%. Moreover, the LC50 at 48 h in the data set “Test 8: Fish Toxicity” is more than 0.1 µg/mL. Moreover, in the data set with green peach aphids, the mortality at 100 ppm was more than 95%.

For the molecule `CCC(COCc1ccc(F)c(Oc2ccccc2)c1)c1ccc(Cl)cc1` (centres unmarked) [Compound 6, 3-Phenoxy-4-fluorobenzyl 2-(4-chlorophenyl)-butyl ether], the mortality at 20 ppm in data set [2] (setting [7]) was 90%; in data set [2] (setting [9]) it was 85%; in data set [5], 100%; in [3], 100%; in data set [6], 100%. In addition, the mortality at 100 ppm in data set [2] (setting [8]) is 100%; in data set [2] (setting [9]) it was 100%; in [5], 100%; in data set [3], 100%; in data set [6], 100%; in the data set with green peach aphids, more than 95%. The LD50 at 168 h in [4] was more than 500 mg/kg. Besides, the mortality at 10 mg/m2 with German cockroach is 100%. The molecule further yielded a mortality at 50 mg/m2 in the data set with German cockroach of 100%. The mortality at 500 ppm in the data set on two-spotted spider mite is 100%. Further, the LC50 at 48 h in “Test 8: Fish Toxicity” was more than 1 µg/mL.

On to “3-phenoxy-α-cyanobenzyl 2,2-dimethyl-3-(2,2-dichlorovinyl)-cyclopropano-1-carboxylate [(i), reference compound]”, for which the “Fish Toxicity, TLm48” value in the data set with yearling carps is listed as “below 0.005 ppm”.

Turning to `CC(C)(COCc1ccc(F)c(Oc2ccc(F)cc2)c1)c1ccc(Cl)cc1` [Compound 1, 3-(4-Fluorophenoxy)-4-fluorobenzyl 2-(4-chlorophenyl)-2-methylpropyl ether], the mortality at 20 ppm in data set [2] (setting [7]) stood at 80%; in [2] (setting [9]) it was 70%; in [3], 100%. For the same molecule, the mortality at 100 ppm in data set [2] (setting [8]) is 90%; in [2] (setting [9]), 80%; in data set [3], 100%; in the data set on green peach aphids, more than 95%. In [4], the LD50 at 168 h is more than 500 mg/kg. In the data set on German cockroach, the mortality at 10 mg/m2 is 100%. The molecule also returned a mortality at 50 mg/m2 in the data set with German cockroach of 100%. Moreover, in the data set on two-spotted spider mite, the mortality at 500 ppm was determined as 100%. Further, the LC50 at 48 h in the data set “Test 8: Fish Toxicity” is approximately 1 µg/mL (≈ 2.48 µM).

Take `CC(C)(COCc1ccc(Cl)c(Oc2ccccc2)c1)c1ccc(Cl)cc1` [Compound 3, 3-Phenoxy-4-chlorobenzyl 2-(4-chlorophenyl)-2-methylpropyl ether]: the figures for the mortality at 20 ppm in data set [5], in [3] and in data set [6] were 80%, 100% and 90%, respectively. In addition, the mortality at 100 ppm was 100% in [5], 100% in data set [3], 100% in data set [6] and more than 95% with green peach aphids. The same molecule had a median lethal dose (LD50) at 168 h in [4] of more than 500 mg/kg. In the data set on German cockroach, this molecule came in with a mortality at 10 mg/m2 of 90%. The molecule also registered a mortality at 50 mg/m2 in the data set on German cockroach of 100%. Also, the mortality at 500 ppm in the data set with two-spotted spider mite is 90%. For the same molecule, the LC50 at 48 h in “Test 8: Fish Toxicity” was more than 10 µg/mL.

In the case of `CC(C)(COCc1ccc(F)c(Oc2ccccc2)c1)c1ccc(-c2ccccc2)cc1` [Compound 61, 3-Phenoxy-4-fluorobenzyl 2-(4-biphenyl)-2-methylpropyl ether], in data set [5], the mortality at 20 ppm is 100% and the mortality at 100 ppm came out at 100%. In data set [4], this molecule came in with an LD50 at 168 h of more than 500 mg/kg. Besides, in the data set on German cockroach, the mortality at 10 mg/m2 came to 85% and the mortality at 50 mg/m2 was 100%. In [6], the mortality at 20 ppm stood at 100% and the mortality at 100 ppm was 100%. Moreover, the mortality at 500 ppm in the data set on two-spotted spider mite was found to be 100%. For the same molecule, the LC50 at 48 h in the data set “Test 8: Fish Toxicity” was more than 1 µg/mL. For the same molecule, in the data set on green peach aphids, the mortality at 100 ppm was more than 95%.

In data set [3], `CC(C)(CSCc1ccc(F)c(Oc2ccccc2)c1)c1ccc(Cl)cc1` [Compound 4, 3-Phenoxy-4-fluorobenzyl 2-(4-chlorophenyl)-2-methylpropyl thioether] had a mortality at 20 ppm of 90% and a mortality at 100 ppm of 100%. The molecule further came in with an LD50 at 168 h in [4] of more than 500 mg/kg. In the data set on German cockroach, this molecule displayed a mortality at 10 mg/m2 of 90% and a mortality at 50 mg/m2 of 100%. Moreover, the mortality at 500 ppm with two-spotted spider mite turned out to be 90%. Besides, in the data set “Test 8: Fish Toxicity”, the LC50 at 48 h is more than 0.5 µg/mL. The mortality at 100 ppm in the data set with green peach aphids is more than 95%.

For the molecule `CC(C)(COCc1ccc(F)c(Oc2ccccc2)c1)c1ccc(Cl)cc1` [Compound 10, 3-phenoxy-4-fluorobenzyl 2-(4-chlorophenyl)-2-methylpropyl ether], the mortality at 20 ppm in data set [2] (setting [7]), in [2] (setting [9]), in [5], in data set [3] and in [6] was 100% each time. Besides, the mortality at 100 ppm in [2] (setting [8]) was 100%; in [2] (setting [9]), 100%; in data set [5], 100%; in [3], 100%; in data set [6] it was 100%; in the data set on green peach aphids, more than 95%. In data set [4], this molecule had a 50% lethal dose (LD50) at 168 h of more than 500 mg/kg. This molecule also showed a mortality at 10 mg/m2 in the data set on German cockroach of 100%. In the data set on German cockroach, this molecule displayed a mortality at 50 mg/m2 of 100%. The mortality at 500 ppm in the data set with two-spotted spider mite came out at 100%. Moreover, in “Test 8: Fish Toxicity”, the LC50 at 48 h was more than 0.1 µg/mL.

As to `CC(C)C(COCc1cccc(Oc2ccccc2)c1)c1ccc(Cl)cc1` (centres unmarked) [(b), reference compound], the mortality at 20 ppm worked out at 10% in [3] and 0% in data set [1] (setting [10]). Besides, the mortality at 100 ppm in data set [3] was determined as 30%; in [1] (48 h), 50%. For the same molecule, in the data set on two-spotted spider mite, the mortality at 500 ppm was determined as 20%.
